This experiment addresses GST-Bc1-2 (Homo sapiens, UniProt P10415). Briefly: Time Resolved-Fluorescence Resonance Energy Transfer (TR-FRET) Bcl-2 binding assay with F-Bak peptide probe. As to conditions: GST-Bcl-2 1 nM, F-Bak probe 100 nM, Tb-anti-GST 1 nM; '<' = below limit of detection; read-out: TR-FRET Bcl-2 Binding Ki. In general terms: In TR-FRET formats the signal depends on donor and acceptor labels being close together.

What is called Ki is a measure of affinity in units of concentration, obtained from inhibition or displacement.

Chain of GST-Bc1-2 (P10415 whole entry): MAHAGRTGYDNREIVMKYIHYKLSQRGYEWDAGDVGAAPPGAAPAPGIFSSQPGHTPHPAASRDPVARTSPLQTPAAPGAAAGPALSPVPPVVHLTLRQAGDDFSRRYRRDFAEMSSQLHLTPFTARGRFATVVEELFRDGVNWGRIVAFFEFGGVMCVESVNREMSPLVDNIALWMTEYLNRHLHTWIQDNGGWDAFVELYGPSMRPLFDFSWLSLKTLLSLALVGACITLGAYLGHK

For `CCN1CCOCC1COc1ccc(S(=O)(=O)NC(=O)c2ccc(N3CCN(CC4=C(c5ccc(Cl)cc5)CC(C)(C)CC4)CC3)cc2Oc2cnc3[nH]ccc3c2)cc1[N+](=O)[O-]` (stereo not shown) [Example 103, 4-(4-{[2-(4-chlorophenyl)-4,4-dimethylcyclohex-1-en-1-yl]methyl}piperazin-1-yl)-N-({4-[(4-ethylmorpholin-3-yl)methoxy]-3-nitrophenyl}sulfonyl)-2-(1H-pyrrolo[2,3-b]pyridin-5-yloxy)benzamide], the Ki is less than 0.01 nM.
Regarding `CC1(C)CCC(CN2CCN(c3ccc(C(=O)NS(=O)(=O)c4ccc(N[C@H]5CCCN(C6CCOCC6)C5)c([N+](=O)[O-])c4)c(Oc4cnc5[nH]ccc5c4)c3)CC2)=C(c2ccc(Cl)cc2)C1` [Example 105, 4-(4-{[2-(4-chlorophenyl)-4,4-dimethylcyclohex-1-en-1-yl]methyl}piperazin-1-yl)-N-[(3-nitro-4-{[(3S)-1-tetrahydro-2H-pyran-4-ylpiperidin-3-yl]amino}phenyl)sulfonyl]-2-(1H-pyrrolo[2,3-b]pyridin-5-yloxy)benzamide], the Ki is less than 0.01 nM.
Consider `CC1(C)CCC(CN2CCN(c3ccc(C(=O)NS(=O)(=O)c4cnc(NCC5CCOCC5)c(C#N)c4)c(Oc4cnc5[nH]ccc5c4)c3)CC2)=C(c2ccc(Cl)cc2)C1` [Example 106, 4-(4-{[2-(4-chlorophenyl)-4,4-dimethylcyclohex-1-en-1-yl]methyl}piperazin-1-yl)-N-({5-cyano-6-[(tetrahydro-2H-pyran-4-ylmethyl)amino]pyridin-3-yl}sulfonyl)-2-(1H-pyrrolo[2,3-b]pyridin-5-yloxy)benzamide], for which the Ki came to 0.895 nM.
Then `CC1(C)CCC(CN2CCN(c3ccc(C(=O)NS(=O)(=O)c4ccc(NCC5(N)CCOCC5)c([N+](=O)[O-])c4)c(Oc4cnc5[nH]ccc5c4)c3)CC2)=C(c2ccc(Cl)cc2)C1` [Example 108, N-[(4-{[(4-aminotetrahydro-2H-pyran-4-yl)methyl]amino}-3-nitrophenyl)sulfonyl]-4-(4-{[2-(4-chlorophenyl)-4,4-dimethylcyclohex-1-en-1-yl]methyl}piperazin-1-yl)-2-(1H-pyrrolo[2,3-b]pyridin-5-yloxy)benzamide], with less than 0.01 nM.
In the case of `CC1(C)CCC(CN2CCN(c3ccc(C(=O)NS(=O)(=O)c4cnc(N[C@H]5CC[C@H](N6CCOCC6)CC5)c(C#N)c4)c(Oc4cnc5[nH]ccc5c4)c3)CC2)=C(c2ccc(Cl)cc2)C1` [Example 109, Trans-4-(4-{[2-(4-chlorophenyl)-4,4-dimethylcyclohex-1-en-1-yl]methyl}piperazin-1-yl)-N-({5-cyano-6-[(4-morpholin-4-ylcyclohexyl)amino]pyridin-3-yl}sulfonyl)-2-(1H-pyrrolo[2,3-b]pyridin-5-yloxy)benzamide], the Ki was determined as 0.127 nM.
Then `CC1(C)CCC(CN2CCN(c3ccc(C(=O)NS(=O)(=O)c4ccc(NCC5CCOCC5)c(C#N)c4)c(Oc4cnc5[nH]ccc5c4)c3)CC2)=C(c2ccc(Cl)cc2)C1` [Example 110, 4-(4-{[2-(4-chlorophenyl)-4,4-dimethylcyclohex-1-en-1-yl]methyl}piperazin-1-yl)-N-({3-cyano-4-[(tetrahydro-2H-pyran-4-ylmethyl)amino]phenyl}sulfonyl)-2-(1H-pyrrolo[2,3-b]pyridin-5-yloxy)benzamide], with 0.557 nM; and `CC1(C)CCC(CN2CCN(c3ccc(C(=O)NS(=O)(=O)c4ccc(N[C@H]5CC[C@@H](N6CCOCC6)C5)c([N+](=O)[O-])c4)c(Oc4cnc5[nH]ccc5c4)c3)CC2)=C(c2ccc(Cl)cc2)C1` [Example 111, 4-(4-{[2-(4-chlorophenyl)-4,4-dimethylcyclohex-1-en-1-yl]methyl}piperazin-1-yl)-N-[(4-{[(1S,3R)-3-morpholin-4-ylcyclopentyl]amino}-3-nitrophenyl)sulfonyl]-2-(1H-pyrrolo[2,3-b]pyridin-5-yloxy)benzamide], with less than 0.01 nM.
Regarding `CC1(C)CCC(CN2CCN(c3ccc(C(=O)NS(=O)(=O)c4ccc(N[C@@H]5CC[C@H](N6CCOCC6)C5)c([N+](=O)[O-])c4)c(Oc4cnc5[nH]ccc5c4)c3)CC2)=C(c2ccc(Cl)cc2)C1` [Example 112, 4-(4-{[2-(4-chlorophenyl)-4,4-dimethylcyclohex-1-en-1-yl]methyl}piperazin-1-yl)-N-[(4-{[(1R,3S)-3-morpholin-4-ylcyclopentyl]amino}-3-nitrophenyl)sulfonyl]-2-(1H-pyrrolo[2,3-b]pyridin-5-yloxy)benzamide], the Ki was less than 0.01 nM.
Consider `CC1(C)CCC(CN2CCN(c3ccc(C(=O)NS(=O)(=O)c4ccc(NCC5CNCCO5)c([N+](=O)[O-])c4)c(Oc4cnc5[nH]ccc5c4)c3)CC2)=C(c2ccc(Cl)cc2)C1` (stereo not shown) [Example 113, 4-(4-{[2-(4-chlorophenyl)-4,4-dimethylcyclohex-1-en-1-yl]methyl}piperazin-1-yl)-N-({4-[(morpholin-2-ylmethyl)amino]-3-nitrophenyl}sulfonyl)-2-(1H-pyrrolo[2,3-b]pyridin-5-yloxy)benzamide], for which the inhibition constant Ki was less than 0.01 nM.
In the case of `CC1(C)CCC(CN2CCN(c3ccc(C(=O)NS(=O)(=O)c4ccc(NCC5CCOC5)c([N+](=O)[O-])c4)c(Oc4cnc5[nH]ccc5c4)c3)CC2)=C(c2ccc(Cl)cc2)C1` (stereo not shown) [Example 114, 4-(4-{[2-(4-chlorophenyl)-4,4-dimethylcyclohex-1-en-1-yl]methyl}piperazin-1-yl)-N-({3-nitro-4-[(tetrahydrofuran-3-ylmethyl)amino]phenyl}sulfonyl)-2-(1H-pyrrolo[2,3-b]pyridin-5-yloxy)benzamide], the inhibition constant (Ki) was less than 0.01 nM.
For `CC1(C)CCC(CN2CCN(c3ccc(C(=O)NS(=O)(=O)c4ccc(NC5CN(C6CCOCC6)C5)c([N+](=O)[O-])c4)c(Oc4cnc5[nH]ccc5c4)c3)CC2)=C(c2ccc(Cl)cc2)C1` [Example 116, 4-(4-{[2-(4-chlorophenyl)-4,4-dimethylcyclohex-1-en-1-yl]methyl}piperazin-1-yl)-N-({3-nitro-4-[(1-tetrahydro-2H-pyran-4-ylazetidin-3-yl)amino]phenyl}sulfonyl)-2-(1H-pyrrolo[2,3-b]pyridin-5-yloxy)benzamide], the Ki is less than 0.01 nM.
For `CC1(C)CCC(CN2CCN(c3ccc(C(=O)NS(=O)(=O)c4ccc(NC5CN(C6CCOC6)C5)c([N+](=O)[O-])c4)c(Oc4cnc5[nH]ccc5c4)c3)CC2)=C(c2ccc(Cl)cc2)C1` (stereo not shown) [Example 117, 4-(4-{[2-(4-chlorophenyl)-4,4-dimethylcyclohex-1-en-1-yl]methyl}piperazin-1-yl)-N-({3-nitro-4-[(1-tetrahydrofuran-3-ylazetidin-3-yl)amino]phenyl}sulfonyl)-2-(1H-pyrrolo[2,3-b]pyridin-5-yloxy)benzamide], the Ki is less than 0.01 nM.
Take `CC1(C)CCC(CN2CCN(c3ccc(C(=O)NS(=O)(=O)c4ccc(NC[C@H]5CCN(C6CCOCC6)C5)c([N+](=O)[O-])c4)c(Oc4cnc5[nH]ccc5c4)c3)CC2)=C(c2ccc(Cl)cc2)C1` [Example 118, 4-(4-{[2-(4-chlorophenyl)-4,4-dimethylcyclohex-1-en-1-yl]methyl}piperazin-1-yl)-N-{[3-nitro-4-({[(3R)-1-tetrahydro-2H-pyran-4-ylpyrrolidin-3-yl]methyl}amino)phenyl]sulfonyl}-2-(1H-pyrrolo[2,3-b]pyridin-5-yloxy)benzamide]: the inhibition constant Ki was less than 0.01 nM.

For the origin of these results see US8580794B2 (AbbVie Inc., priority 2009, dated 2013).
